# Test results reported in PubChem BioAssay AID602235 (The Scripps Research Institute Molecular Screening Center, 2012).
# Activity calls are given as the source filed them. How the calls were made is not given here.
# Biological target: Nuclear receptor coactivator 1 (Homo sapiens) (UniProt Q15788)
# Assay: SRC1 (NCOA1) coactivator inhibitors, dose response, cell-based, luciferase reporter, luminescence (AID 602235);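 further: cells transfected with pGL4.31 reporter plus pBIND-SRC1 vector; potency is for inhibitors that lower SRC1 reporter luminescence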
# Chain of Nuclear receptor coactivator 1 (Homo sapiens) (Q15788 whole entry, looked up): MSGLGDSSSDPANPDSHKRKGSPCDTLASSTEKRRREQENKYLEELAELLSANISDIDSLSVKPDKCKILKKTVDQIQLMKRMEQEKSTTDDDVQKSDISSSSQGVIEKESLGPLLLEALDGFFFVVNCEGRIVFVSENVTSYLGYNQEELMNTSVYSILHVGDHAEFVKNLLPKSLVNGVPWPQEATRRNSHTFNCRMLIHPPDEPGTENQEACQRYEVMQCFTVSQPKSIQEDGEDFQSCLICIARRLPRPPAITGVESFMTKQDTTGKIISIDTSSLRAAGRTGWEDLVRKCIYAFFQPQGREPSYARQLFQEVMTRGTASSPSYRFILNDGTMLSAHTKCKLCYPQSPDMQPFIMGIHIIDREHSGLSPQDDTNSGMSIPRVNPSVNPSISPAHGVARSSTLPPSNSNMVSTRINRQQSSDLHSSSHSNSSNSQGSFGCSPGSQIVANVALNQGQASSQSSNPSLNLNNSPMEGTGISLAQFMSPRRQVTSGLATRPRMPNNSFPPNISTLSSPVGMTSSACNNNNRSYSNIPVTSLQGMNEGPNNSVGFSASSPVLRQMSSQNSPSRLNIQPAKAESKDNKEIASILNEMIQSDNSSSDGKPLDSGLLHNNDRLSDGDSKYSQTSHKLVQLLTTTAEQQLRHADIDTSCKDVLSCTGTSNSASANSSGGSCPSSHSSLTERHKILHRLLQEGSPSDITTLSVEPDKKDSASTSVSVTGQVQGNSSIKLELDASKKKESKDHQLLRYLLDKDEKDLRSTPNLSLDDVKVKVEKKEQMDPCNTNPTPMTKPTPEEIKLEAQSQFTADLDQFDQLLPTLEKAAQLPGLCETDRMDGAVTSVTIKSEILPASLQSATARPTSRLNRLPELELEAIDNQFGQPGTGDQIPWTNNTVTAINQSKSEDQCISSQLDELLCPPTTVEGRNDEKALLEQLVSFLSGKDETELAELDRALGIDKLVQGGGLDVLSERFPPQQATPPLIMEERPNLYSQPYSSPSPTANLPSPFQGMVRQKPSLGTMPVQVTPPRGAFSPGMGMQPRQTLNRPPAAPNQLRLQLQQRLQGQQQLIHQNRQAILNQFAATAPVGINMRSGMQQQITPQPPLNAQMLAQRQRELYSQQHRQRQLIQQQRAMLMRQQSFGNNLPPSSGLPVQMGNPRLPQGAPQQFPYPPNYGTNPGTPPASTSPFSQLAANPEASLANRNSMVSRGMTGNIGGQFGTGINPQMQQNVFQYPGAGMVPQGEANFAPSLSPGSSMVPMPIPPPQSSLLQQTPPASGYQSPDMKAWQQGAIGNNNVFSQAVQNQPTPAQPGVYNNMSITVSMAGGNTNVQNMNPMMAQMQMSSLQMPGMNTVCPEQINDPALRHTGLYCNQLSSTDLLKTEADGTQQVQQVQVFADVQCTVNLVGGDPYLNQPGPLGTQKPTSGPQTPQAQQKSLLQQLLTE
row,Compound,IC50
1,CCCCCOc1ccc(/C=C/c2c([N+](=O)[O-])c(=O)n(C)c(=O)n2C)cc1,9.08 µM
2,Cc1ccc(N=c2c([N+](=O)[O-])nn(-c3ccc4c(c3)OCCO4)n2O)cc1F,inactive
3,N#Cc1c(-c2ccccc2)c(C#N)c2nc3ccccc3n2c1N,> 35.9 µM (inactive)
4,CC(=O)NC(c1cc(Cl)c2cccnc2c1O)C(C)C (configuration not stated),> 35.9 µM (inactive)
5,CN(C)C=Nc1c(C(=O)c2ccccc2)sc2nccc(N(C)C)c12,8.53 µM
6,Cc1ccc(OCC(=O)c2cc(C)n(-c3ccccc3)c2C)c([N+](=O)[O-])n1,inactive
7,O=C(N/N=C/c1coc2ccc(Cl)cc2c1=O)c1ccc(O)cc1,> 35.9 µM (inactive)
8,Cc1ccc(C(=O)Nc2sc(C)c(-c3ccccc3)c2C(N)=O)cc1[N+](=O)[O-],> 35.9 µM (inactive)
9,COc1cc(/C=C2\CC(C(C)(C)C)C/C(=C\c3cc(OC)c(OC)c(OC)c3)C2=O)cc(OC)c1OC (configuration not stated),> 35.9 µM (inactive)
10,CCOC(=O)c1c(NC(=O)C(C)N2CCN(C(=O)c3ccco3)CC2)sc2c1CCCC2 (configuration not stated),inactive
11,COc1ccccc1-c1cc2nc(-c3ccccc3)cc(N3CCN(C(=O)c4ccco4)CC3)n2n1,inactive
12,COc1ccc(CNc2ncc(-c3ccc(F)cc3)n2C)c2ccccc12,inactive
13,CCc1ccc(/C=C2\SC(=S)N(CCCC(=O)NCCCN3CCOCC3)C2=O)cc1,6.27 µM
14,COC(=O)c1cccc2c1-c1ccccc1/C2=N/O,9.71 µM
15,Cc1ccccc1C(=O)/C(C#N)=N/Nc1c(C)n(C)n(-c2ccccc2)c1=O,inactive
16,CCN(C(=O)c1cc(S(=O)(=O)N2CCCCC2)c[nH]1)c1ccc(OC)cc1,inactive
17,COc1cc(OC)c2cc(C(=O)N/N=C/c3cccc(OC)c3O)[nH]c2c1,inactive
18,CCOc1ccc(/C=C2\SC(=S)N(CCCC(=O)NCCCN3CCOCC3)C2=O)cc1,> 12 µM (inactive)
19,Cc1nc(N2CCC(C(N)=O)CC2)c2c(-c3cccs3)csc2n1,8.59 µM
20,CCc1c(C)nc2c(C)cccc2c1SCCC#N,> 35.9 µM (inactive)
21,CCOc1ccc(/C=C2\SC(=S)N(CCC(=O)O)C2=O)cc1,> 35.9 µM (inactive)
22,O=C(CSc1nc(-c2cccs2)cc(C(F)(F)F)n1)Nc1cc(OCC(F)(F)C(F)F)cc([N+](=O)[O-])c1,> 35.9 µM (inactive)
23,Nc1nc(CCl)nc(Nc2cccc3ccccc23)n1,inactive
24,COc1ccc2[nH]c(=O)c(CN(CCN3CCCC3)C(=O)Nc3ccccc3Cl)cc2c1,> 35.8 µM (inactive)

row,Compound,IC50
1,O=C(COC(=O)c1ccc[nH]c1=O)Nc1ccc(N2CCCCC2)cc1,> 35.9 µM (inactive)
2,CCn1ccnc1CN(C)Cc1cn[nH]c1-c1ccc(F)cc1F,inactive
3,CCOc1ccccc1-n1c(SCC(=O)Nc2ccccc2C(=O)O)nc2ccccc2c1=O,> 35.9 µM (inactive)
4,CCCCC(CC)COCCCN=Cc1c(O)[nH]c(=S)[nH]c1=O (configuration not stated),inactive
5,CCC(=O)Oc1c(C(=O)CC)cc2c(C)cc(=O)oc2c1C,> 35.8 µM (inactive)
6,O=C(N/N=C/c1ccc(O)cc1O)/C(=C/c1ccccc1)CCO,inactive
7,Nc1ccc(Oc2ccccc2-c2ccccc2)cc1,inactive
8,CCN(CC)CCNC(=O)c1ccc(NC(=O)C2CCN(c3ncnc4sc(C)c(C)c34)CC2)cc1,5.4 µM
9,Cc1nc2ccccn2c1-c1ccnc(=S)[nH]1,6.33 µM
10,C=CCOc1ccc(/C=C2\SC(=S)N(CCC(=O)O)C2=O)cc1,> 35.9 µM (inactive)
11,COc1ccc(-c2cnc(N)nc2-c2ccc(OC)cc2O)cc1,inactive
12,Cc1ccc(NC(=O)NC2CC(=O)N(c3ccc4c(c3)OCCO4)C2)cc1C (configuration not stated),6 µM
13,COc1ccccc1/C=C\C(=O)NCC(=O)N/N=C/c1cccc(OC)c1O,inactive
14,Cc1sc2ncnc(N3CCC(C(=O)Nc4cc(S(C)(=O)=O)ccc4Cl)CC3)c2c1C,inactive
15,CCC(=O)c1ccc(Oc2nc3c(c(=O)n(C)c(=O)n3C)n2CC)cc1,7.62 µM
16,Cc1nn(C(C)(C)C)c(C)c1/C=N/OC(=O)Nc1ccc(Cl)c(Cl)c1,inactive
17,Cc1c(C(=O)N/N=C/C(C)C)[nH]c2ccc([N+](=O)[O-])cc12,inactive
18,COc1ccc(-c2ncncc2-c2ccccc2)c(O)c1,inactive
19,O=C(O)c1ccccc1C(=O)Nc1ccc(Oc2cccc3ccccc23)cc1,> 35.9 µM (inactive)
20,O=C(CCC(=O)Nc1ccc(Br)cc1)N/N=C/c1ccccc1O,4.94 µM
21,CNc1ncnc(Sc2nc(N)nc3nc[nH]c23)c1[N+](=O)[O-],> 35.9 µM (inactive)
22,Nc1ccc(-c2cc3ccccc3oc2=O)cc1,8.96 µM
23,C=CCc1ccccc1OCC(=O)N/N=C/c1ccc(OC(C)=O)cc1OC(C)=O,inactive
24,O=C(CCl)NC(Cc1ccccc1)c1ccccc1 (configuration not stated),inactive

row,Compound,IC50
1,COc1cc2c3c([nH]c2cc1F)C(=O)NCC3,9.54 µM
2,COc1ccccc1CNC(=O)C(=O)NCCC1CCCCN1S(=O)(=O)c1ccc(C)cc1 (configuration not stated),inactive
3,COc1cc(C(=O)NC(=S)NNC(=O)c2cnccn2)cc(OC)c1OC,inactive
4,CCOc1ccc(-c2noc(CCC(=O)O)n2)cc1,> 35.9 µM (inactive)
5,O=C1c2cccc(OCc3ccc(F)cc3)c2CCN1Cc1ccccc1,> 35.9 µM (inactive)
6,CC(C)(C)OC(=O)NCC(=O)Oc1cc2oc(=O)cc(-c3ccccc3)c2cc1Cl,inactive
7,COc1cccc(/C=N/NC(=O)CNC(=O)C2COc3ccccc3O2)c1O (configuration not stated),inactive
8,O=C(O)c1ccccc1-c1c2cc(I)c(=O)c(I)c-2oc2c(I)c(O)c(I)cc12,> 35.9 µM (inactive)
9,COc1cccc2c1C(=N)c1c(O)c3c(c(O)c1C2=O)CC(O)(C(C)=O)CC3OC1CC(N)C(O)C(C)O1 (configuration not stated),> 35.9 µM (inactive)
10,C=CCn1c(O)c(C(C)=NCc2cc(OC)cc(OC)c2)c(=O)[nH]c1=O,inactive
11,CCCCC(=O)OCC(=O)C1(O)Cc2c(O)c3c(c(O)c2C(OC2CC(NC(=O)C(F)(F)F)C(O)C(C)O2)C1)C(=O)c1c(OC)cccc1C3=O (configuration not stated),> 35.9 µM (inactive)
12,CCOc1cccc(/C=N/NC(=O)c2cccnc2)c1O,> 12 µM (inactive)
13,Cc1cc(C)nc(SCc2ccc(C(=O)N/N=C/c3cccc(O)c3O)cc2)n1,5.18 µM
14,CCCCN(CCCC)c1ncnc2nc[nH]c12,inactive
15,Cc1noc(/C=C/c2ccco2)c1S(=O)(=O)N1CCC(C(=O)Nc2ccc(Cl)cn2)CC1,> 35.9 µM (inactive)
16,CN(C)C(=O)c1ccc(-c2n[nH]c(=O)c3ccccc23)cc1,inactive
17,O=C(OC(c1ccccc1)c1nccc2ccccc12)c1ccccc1 (configuration not stated),> 11.9 µM (inactive)
18,O=C1CCC/C1=c1\s/c(=C/c2cccnc2)c(=O)n1-c1ccccc1,inactive
19,OCCN(CCO)CC(O)COc1ccc(C23CC4CC(CC(C4)C2)C3)cc1 (configuration not stated),> 35.9 µM (inactive)
20,Cc1ccc(NC(=O)CCC(=O)N/N=C/c2ccc(O)cc2O)cc1,inactive
21,O=C(CCCc1nc(-c2ccccc2Cl)no1)NC1CCCC1,inactive
22,CCN(Cc1ccncc1)C(=O)CC1C(=O)NCCN1Cc1ccc(F)c(F)c1 (configuration not stated),inactive
23,CCn1c(Oc2cccc(Br)c2)nc2c1c(=O)n(C)c(=O)n2C,inactive
24,c1cnc2ccc(-n3ccnc3)cc2c1,> 35.9 µM (inactive)
